For one compound, inhibition results are on record in PubChem BioAssay AID652107 (NMMLSC, 2013).

The test deals with human granulocytes, fMLF-stimulated F-actin, FITC-phalloidin flow. The test can be described thus: actin polymerization inhibitors in human granulocytes – cell-based, primary human granulocytes, FITC-phalloidin flow cytometry, mechanism study for Cdc42 probe extension project (AID 652107). The note with it: at 10 µM; hits give high values. On the technique in general: In flow cytometry, cells or beads pass a laser one at a time.

Regarding `COc1ccc(C2CC(c3ccccc3)=NN2c2ccc(S(N)(=O)=O)cc2)cc1` (stereo unspecified), the inhibition was 10%.

A word on the inhibition: it is the relative decrease from the control value, in per cent.
